Results published in PubChem BioAssay AID1259407 (Chemical Carcinogenesis Research Information System (CCRIS), 2018).
Calls of active or inactive are those of the source. No rule for the calls is given here.

Tested on: CCRIS mutagenicity, Ames/micronucleus/aberration tests
Test: CCRIS mutagenicity studies

Structure (SMILES) | mutagenic call (Test System: AMES SALMONELLA TYPHIMURIUM, Strain/Indicator: TA98, Metabolic Activation: NONE, Method: STANDARD PLATE) | mutagenic call (Test System: AMES SALMONELLA TYPHIMURIUM, Strain/Indicator: TA98, Metabolic Activation: RAT, LIVER, S-9, AROCLOR 1254, Method: STANDARD PLATE) | mutagenic call (Test System: AMES SALMONELLA TYPHIMURIUM, Strain/Indicator: TA100, Metabolic Activation: NONE, Method: STANDARD PLATE) | mutagenic call (Test System: AMES SALMONELLA TYPHIMURIUM, Strain/Indicator: TA100, Metabolic Activation: RAT, LIVER, S-9, AROCLOR 1254, Method: STANDARD PLATE) | mutagenic call (Test System: AMES SALMONELLA TYPHIMURIUM, Strain/Indicator: TA1535, Metabolic Activation: NONE, Method: STANDARD PLATE) | mutagenic call (Test System: AMES SALMONELLA TYPHIMURIUM, Strain/Indicator: TA1535, Metabolic Activation: RAT, LIVER, S-9, AROCLOR 1254, Method: STANDARD PLATE) | mutagenic call (Test System: AMES SALMONELLA TYPHIMURIUM, Strain/Indicator: TA1537, Metabolic Activation: NONE, Method: STANDARD PLATE) | mutagenic call (Test System: AMES SALMONELLA TYPHIMURIUM, Strain/Indicator: TA1537, Metabolic Activation: RAT, LIVER, S-9, AROCLOR 1254, Method: STANDARD PLATE) | mutagenic call (Test System: AMES SALMONELLA TYPHIMURIUM, Strain/Indicator: TA1538, Metabolic Activation: NONE, Method: STANDARD PLATE) | mutagenic call (Test System: AMES SALMONELLA TYPHIMURIUM, Strain/Indicator: TA1538, Metabolic Activation: RAT, LIVER, S-9, AROCLOR 1254, Method: STANDARD PLATE) | mutagenic call (Test System: E. COLI, Strain/Indicator: WP2, Metabolic Activation: NONE, Method: STANDARD PLATE) | mutagenic call (Test System: E. COLI, Strain/Indicator: WP2, Metabolic Activation: RAT, LIVER, S-9, AROCLOR 1254, Method: STANDARD PLATE) | mutagenic call (Test System: AMes Salmonella typhimurium, Strain/Indicator: TA98, Metabolic Activation: None, Method: Standard plate) | mutagenic call (Test System: Ames Salmonella typhimurium, Strain/Indicator: 98, Metabolic Activation: Rat, Liver, S-9, Aroclor 1254, Method: Standard plate) | mutagenic call (Test System: Ames Salmonella typhimurium, Strain/Indicator: TA100, Metabolic Activation: None, Method: Standard plate) | mutagenic call (Test System: Ames Salmonella typhimurium, Strain/Indicator: TA100, Metabolic Activation: Rat, Liver, S-9, Aroclor 1254, Method: Standard plate)
O=CC(O)C(O)C(O)CO (stereo unspecified) | inactive; negative | inactive; negative | inactive; negative | inactive; negative | inactive; negative | inactive; negative | inactive; negative | inactive; negative | inactive; negative | inactive; negative | inactive; negative | inactive; negative | – | – | – | –
O=c1c(O[C@@H]2O[C@H](CO)[C@@H](O)[C@H](O)[C@H]2O)c(-c2ccc(O)c(O)c2)oc2cc(O)cc(O)c12 | – | – | – | – | – | – | – | – | – | – | – | – | active; positive | active; positive | inactive; negative | active; positive
